# Measured values reported in a melting point compilation (Tetko et al.; mined from patent text by program, amines drawn as free bases though some values may be those of a salt).
row,Compound,melting point [°C]
1,COc1ccc(-c2c(NCC(C)c3ccccc3)c(=O)c2=O)cc1 (centres undefined),215 to 216
2,COCCn1c(S(C)=O)nc(-c2ccc(F)cc2)c1-c1ccnc(Nc2ccccc2)c1 (centres undefined),83 to 85
3,CCCCCCCCCCCCCCCCCCSP(=S)(C1CCCCC1)C1CCCCC1,67 to 69
4,O=C(O)c1cc(Cl)c(Oc2ccc(O)cc2)c(Cl)c1,163 to 165
5,CNC(=O)c1cccc(F)c1Nc1nc(Nc2ccc3c(c2)C(=O)NCCC3)ncc1Cl,200
6,Cc1ccc(-n2nc(C(N)=O)nc2-c2ccccc2)cc1C,169 to 170
7,CCOC(=O)c1cn2c3c(c(F)c(Cl)cc3c1=O)OCC2C (centres undefined),263 to 264
8,CCCCn1ncc2cc(/C=C/c3ccc(O)cc3)ccc2c1=O,225 to 230
9,Cc1cccc2nc3n(c(=O)c12)-c1ccccc1C3=O,304 to 307
10,CC(C)(C)c1cc(-c2nn(CCCO)c3ncccc23)cc(C(C)(C)C)c1O,143 to 144
11,O=C(O)CCc1cnoc1-c1cc(Cl)ccc1Cl,103 to 104
12,COc1ccc2c(c1)CC(C)(CN1CCC(c3ccccc3)CC1)NC2=O (centres undefined),93 to 95
13,"Cc1ccc(COCc2c(C(C)C)cc(C(C)C)c(C(C)O)c2-c2ccc(F)cc2)cc1 (single isomer, unassigned; (+))",84 to 86
14,C[Si](C)(C)C#Cc1cn(-c2c(Cl)cc(C(F)(F)F)cc2Cl)nc1C(F)(F)F,105 to 108
15,CCCc1cc2c(c3c1[nH]c1ccc(OC)cc13)C(=O)N(CCN(C)C)C2=O,207 to 208
16,CCCc1c(C)[nH]c(C(=O)OCC)c1C,104 to 106
17,CON(Cc1cccc(-c2ccc(Cl)cc2)c1)C(=O)c1cn(C)nc1C(F)F,78 to 80
18,CC(C)(C)c1cc(-c2nn(CC(F)(F)F)c3ncccc23)cc(C(C)(C)C)c1O,104 to 106
19,Cc1ccc2c(c1)Nc1ccccc1N=C2N1CCN[C@@H](CCc2ccccc2)C1,64 to 80
20,CC(C)c1nc(CCOC2=CCCCCCCCCCC2)n(C)c1Sc1cc(Cl)cc(Cl)c1,96 to 102

row,Compound,melting point [°C]
1,COC(=O)c1cccc(-c2nnn(Cc3ccc(OC)cc3)n2)c1,105 to 106
2,Cc1cc(Oc2cc(C(F)(F)F)nn2C)nc(C(=O)Nc2ccc(F)cc2)c1,133
3,O=C1Cc2ccccc2Oc2ccc(CC(O)(P(=O)(O)O)P(=O)(O)O)cc21,228
4,Cc1sc(C)c2c1CCCC2(O)c1cn(C(c2ccccc2)(c2ccccc2)c2ccccc2)cn1 (centres undefined),111 to 115
5,O=C1Cc2cc(C(=O)N3CCN(CCC(=O)c4ccccc4)CC3)ccc2N1,208 to 210
6,Nc1nc(/C(=N/OCC(=O)N2CCCCCC2)C(=O)O)cs1,178 to 179
7,CCc1nn(CCOC(N)=O)c(CC)c1Cc1cc(Cl)cc(Cl)c1,145 to 147
8,CCNC(=NC(=Nc1ccccc1)N1CCOCC1)C(C)C,155 to 158
9,O=C(N[C@H]1CN(C(=O)NS(=O)(=O)N2CCN(NC(=O)OCc3ccccc3)C2=O)C1=O)OCc1ccccc1,75.7 to 116
10,CN(C)c1nnc(NN)c(=O)[nH]1,264 to 266
11,CSC(C(=O)O)c1ccco1 (centres undefined),62 to 62.5
12,O=[N+]([O-])c1ccc(C=Cc2ccc(N3CCC(O)CC3)cc2)cc1,248 to 250
13,CCCNC(=O)C1c2ccccc2-c2ccccc21,197 to 199
14,COc1cc2cc(CO)nc(-c3cccc(Cl)c3)c2cc1OC,118 to 120
15,Cc1[nH]c(=S)n(Nc2cccc(Cl)c2)c1C(=O)O,166 to 168
16,C/C(=C\CO)c1ccc(OCc2nc(-c3ccccc3)oc2C)cc1,126 to 127
17,COc1c(C)c2c(c(O)c1CC1=C(C)C(CC(=O)O)CC1)C(=O)OC2 (centres undefined),153 to 159
18,CCCOc1ccc(S(C)(=O)=O)cc1-c1nc2c(CC)n[nH]c2c(=O)[nH]1,276 to 277
19,CCOC(=O)c1cc2cc(OCCOC)cc(NS(=O)(=O)c3cccs3)c2[nH]1,106 to 107
20,C[Si](C)(C)c1cc(C(F)=C(F)C(F)(F)F)c(S(N)(=O)=O)s1,129 to 140

row,Compound,melting point [°C]
1,CCn1cc(C(=O)O)c(=O)c2cc(F)c(N3CC(C)(NC(=O)C(F)(F)F)C3)c(F)c21,196 to 210
2,COc1ccc(-c2cc(=O)cc(N3CCOCC3)o2)cc1,220
3,O=C(O)Cc1ccc(C(=O)c2ccc(Cl)cc2)[nH]1,210
4,Oc1ccc(CCc2cc(O)c(O)c(O)c2)cc1,180 to 188
5,CC#CCOc1ccc(S(=O)(=O)C2(C(=O)O)CCN(Cc3ccc(Cl)c(Cl)c3)CC2)cc1,213
6,CCCCCCCCCCCCCCCCCC1CC(OC(=O)c2ccccc2)C(CC)C(=O)O1 (racemic),64.5 to 66
7,CN[C@@H]1CN(c2c(F)cc3c(=O)c(C(=O)O)cn([C@@H]4C[C@@H]4F)c3c2C)C[C@@H]1C(C)C,168 to 171
8,COc1ccc(NC(=O)C2=C(O)c3ccccc3S(=O)(=O)N2C)c(=O)cc1,251 to 253
9,Nc1nnc2ccc(-c3ccco3)nn12,203 to 206
10,Cc1ccccc1-c1c(NC(=O)Nc2c(C)cccc2C)c(=O)oc2c(F)cc(F)cc12,221 to 222
11,CCN(CC)Cc1ccc(N=C2NCCN2)c(Cl)c1,113 to 115
12,CC(SCCS(=O)(=O)N(C)C)c1ccc2c(c1)OCO2 (centres undefined),93 to 94.5
13,COc1cc(CCCCC#CCCCC#CCO)c(O)c2ccccc12,85 to 87
14,CC(C)(C)OC(=O)N1CCc2c(cc(O)c(O)c2F)C(c2ccc(O)cc2)C1 (centres undefined),100 to 105
15,Cc1ccc(-c2cc(C)c(C(=O)N=C(N)N)cc2S(C)(=O)=O)cc1,222 to 224
16,COc1cc(Nc2nccc(-c3nc4ccccc4s3)n2)cc(OC)c1OC,182 to 183
17,CCCNC1=NS(=O)(=O)c2sc(Cl)cc2N1,258 to 261
18,CC(C)(C)c1cc(N=C2CCc3cc4c(nc32)C(=Nc2cc(C(C)(C)C)cc(C(C)(C)C)c2)CC4)cc(C(C)(C)C)c1,177 to 183

# The next lines start with the values.
row,melting point [°C],Compound
1,204,O=C(O)c1ccc(OCCn2ccnc2)c(Cl)c1
2,102 to 104,CCOC(=O)c1[nH]c(C)c(C(C)CC)c1C (centres undefined)
3,132 to 133,CC(C)(C)OC(=O)N[C@@H](Cc1ccccc1)C(=O)N[C@H]1CCOC1=O
4,189 to 191,COc1ccc(Nc2cc(C)nc(SCC(N)=NO)n2)cc1
5,135,Cc1cccc(NC(=O)NCC(=O)N(CC(=O)N(C)c2ccc(F)cc2)c2ccccc2)c1
6,136 to 138,CC(C)(C)OC(=O)C[C@H](NC(=O)CNC(=O)CCc1ccc(C(=N)N)cc1)C(=O)NC1(C(=O)O)CCCC1
7,119 to 120,O=C1OC(CCl)CN1c1ccc(Cl)cc1 (centres undefined)
8,> 270,CCn1c(=O)c2[nH]c(/C=C/c3ccc(Br)cc3)nc2n(CC)c1=O
9,76 to 80,COc1ccccc1N1CCN(C[C@@H](O)CN)CC1
10,126 to 127,N#CCOc1ccc2cc(Br)ccc2c1Cl
11,91 to 93.5,COc1cccc2c(CBr)coc12
12,168 to 172,COc1cc(OC)cc(-c2ncoc2-c2ccc(OC)c(O)c2F)c1
13,124 to 126,CCCCCC(CCn1ccnc1)SCc1ccc(Cl)cc1Cl (centres undefined)
14,202 to 204,CCCc1nc2c(N)nc3cc(-c4ccccc4)ccc3c2n1CCCC(C)=O
15,367 to 370,O=c1[nH]c2ncc(-c3cnc4[nH]cnc4c3)nc2n1CC1CCOCC1
16,> 300,CC(C)c1ccc(-c2nnc(-c3ccc(C(=O)O)cc3)s2)cc1
17,154 to 159,COc1ccc(N(Cc2cccc3ccccc23)c2ccccc2)cc1
18,171 to 172,COc1cc(C)c(C(=O)c2ccc(OCc3nc(-c4ccccc4)oc3C)cc2)c(O)c1
19,187 to 189,CCOc1ccc(NC(=O)c2cnc3c(N)cccc3c2)cc1
20,103 to 104,CN(C)C(=O)c1c(-c2ccc(F)cc2)ccc2ccccc12
21,84 to 86,CCOCc1cc2ccccc2oc1=Nc1ccc(Cl)cc1

row,melting point [°C],Compound
1,184 to 186,C[C@@H]1Cc2ccsc2[C@H](c2ccccc2)N1CCNS(=O)(=O)c1ccc(N)cc1 (relative stereo)
2,202 to 204,CCCC(=O)Nc1c2c(nc3ccccc13)CCCC2
3,133 to 136,COc1ccccc1-c1ccc(-c2ccc(C(=O)O)cc2)cc1-c1ccc2c(c1)C(C)(C)CCC2(C)C
4,211 to 213,CS(=O)(=O)c1ccc(-c2cnn(-c3cccc(Cl)c3)c(=O)c2Oc2ccc(F)cc2)cc1
5,115 to 116,CC(C)=CC(n1cncn1)C(C)(O)C(C)(C)C (centres undefined)
6,165 to 170,COP(C)(=O)C(O)[C@H](CC1CCCCC1)NC(=O)[C@H](CC(C)C)NC(=O)CCc1ccccc1 (some centres undefined)
7,203 to 204,Cn1cnc(S(=O)(=O)NCCc2ccc(OCC(=O)O)cc2)c1
8,73 to 75,OC[C@H]1COc2cc(Cl)ccc2O1
9,202,CCOC(=O)N1C=CC2=NC(C)=NC(N(C)c3ccccc3)N21 (centres undefined)
10,166 to 170,COc1ccc(-c2cnc(N)c(Br)n2)cc1
11,128 to 129,O=C1CCN(Cc2cccc(C(F)(F)F)c2)CC1C(c1ccccc1)c1ccccc1 (centres undefined)
12,100 to 101,OCc1c(Cl)cc(Cl)cc1Cl
13,158,CC1(C)CC(O)(C(F)(F)F)C(Nc2cccc3[nH]c(=O)ccc23)c2cc(O)c(Cl)cc21 (centres undefined)
14,125 to 128,COC(=O)C(Cc1cc(OC)cc(OC)c1)c1ccc(Oc2ccc(CC3SC(=O)NC3=O)cc2)cc1 (centres undefined)
15,128 to 135,COc1cc(C(=O)NS(=O)(=O)c2ccccc2Cl)ccc1Cc1cn(C)c2ccc(CC3CCN(C)C3=O)cc12 (centres undefined)
16,124 to 125,COc1ccc(CN2CCN(C(=S)C3(C)CCc4c(C)c(O)c(C)c(C)c4O3)CC2)c(OC)c1OC (centres undefined)
17,185 to 188,COc1cc(C(=O)c2ccc([N+](=O)[O-])cc2)c(CC(=O)O)cc1Cl
18,220 to 221,Cc1c(C)c2c(c(C)c1NC(=O)CC(C)(C)C)C(c1ccc(C(C)C)c(O)c1)CO2 (centres undefined)
19,130,CC(=O)OCSc1c(F)cc(-c2c(-c3ccccc3)noc2C)cc1F
20,97 to 99,COc1cccc(-c2cc(C)cc3c2OC(CN)C3)c1OC (centres undefined)
